{
  "source": "patent US5929038A",
  "about": "“Pharmaceutical preparations which inhibit hepatitis B virus (HBV) replication” (Choongwae Pharmaceutical Co., Ltd., priority 1992, dated 1999)",
  "key": {"[1]": {"tested_on": "hematopoietic cells", "settings": "cited from earlier work"}, "[2]": {"tested_on": "HBV DNA replication", "experiment": "Effects on HBV DNA replication in 2.2.15 cells in culture (intracellular HBV DNA and HBV virion DNA)", "format": "cell-based, hepatitis B virus", "settings": "ddC 25 μM"}, "[3]": {"tested_on": "central and peripheral nervous system", "settings": "in vivo; cited from earlier work"}, "[4]": {"settings": "24 hrs following the 9th day of treatment"}},
  "note": "Where “and” joins values, the source holds several entries; their conditions need not be identical. Equal entries are not always repeated.",
  "data": [
    {"smiles": "Nc1ccn([C@H]2CC[C@@H](CO)O2)c(=O)n1", "note": "[ddC, 2',3'-dideoxycytidine, reference compound]", "values": [
      {"measurement": "toxicity on hematopoietic cells", "setting": "[1]", "result": "toxicity on hematopoietic cells"},
      {"measurement": "Intracellular HBV DNA, Mono.", "setting": "[2]; [4]", "result": "1.1 pg/μg cell DNA and 1.2 pg/μg cell DNA and 0.8 pg/μg cell DNA and 1.0 pg/μg cell DNA"},
      {"measurement": "Intracellular HBV DNA, RI (Replicating Intermediate)", "setting": "[2]; [4]", "result": 1, "unit": "pg/μg cell DNA"},
      {"measurement": "HBV Virion DNA, Day 0", "setting": "[2]; Day 0, before first dose", "result": "65 pg/ml culture medium and 70 pg/ml culture medium and 78 pg/ml culture medium and 60 pg/ml culture medium"},
      {"measurement": "HBV Virion DNA, Day 3", "setting": "[2]; Day 3", "result": "41 pg/ml culture medium and 33 pg/ml culture medium and 31 pg/ml culture medium and 40 pg/ml culture medium"},
      {"measurement": "HBV Virion DNA, Day 6", "setting": "[2]; Day 6", "result": "15 pg/ml culture medium and 13 pg/ml culture medium and 10 pg/ml culture medium and 12 pg/ml culture medium"},
      {"measurement": "toxicity on the central and peripheral nervous system", "setting": "[3]", "result": "high toxicity on the central and peripheral nervous system"}
    ]}
  ]
}
